Data on 2 molecules can be found in ChEMBL document CHEMBL1152878, “N-Hydroxy-1,2-disubstituted-1H-benzimidazol-5-yl acrylamides as novel histone deacetylase inhibitors: design, synthesis, SAR studies, and in vivo antitumor activity” (Bioorg Med Chem Lett, 2009).

Series [1] can be described thus: Solubility at pH 6.5. Type of series: physicochemical. The settings on record: buffer.
Series [2] is described as follows: Lipophilicity, log D at pH 7.3. Type of series: physicochemical. Particulars: buffer.
Series [3] relates to HCT-116. Kind of series: Antitumor activity against human HCT116 cells xenografted in athymic mouse assessed as tumor growth inhibition at 200 mg/kg, po qd for 21 days measured on day 21. Particulars: HCT-116, 504 h, read-out: TGI. It counts as functional. A general note: A xenograft is tissue or cells of one species grown in another, often human tumour cells in immunodeficient mice.

Series [4] deals with Mus musculus. Kind of series: Toxicity in athymic xenografted with human HCT116 cells mouse assessed as maximum body weight loss at 200 mg/kg, po qd for 21 days measured on day 7. It counts as organism-based, HCT-116. Further details: dose 200 mg/kg, route oral. Particulars: in vivo, 504 h.
Series [5] relates to HCT-116. The experiment in a line: Antitumor activity against human HCT116 cells xenografted in athymic mouse assessed as tumor growth inhibition at 100 mg/kg, po qd for 21 days measured on day 21. Type of series: functional. The settings on record: HCT-116, 504 h, read-out: TGI.
The subject of series [6] is Mus musculus. Kind of series: Toxicity in athymic mouse xenografted with human HCT116 cells assessed as maximum body weight loss at 100 mg/kg, po qd for 21 days. More on the design: dose 100 mg/kg, route oral. Type of series: organism-based, HCT-116. Particulars: in vivo, 504 h.
The nature of series [7]: Oral bioavailability in mouse at 50 mg/kg. It counts as ADME, organism-based. Particulars: in vivo.
Series [8] can be described thus: Cmax in mouse at 50 mg/kg, po. It counts as ADME, organism-based. Further details: dose 50 mg/kg, route oral. Particulars: in vivo.
A further series addresses Histone deacetylase 3 (Homo sapiens, UniProt O15379). The experiment in a line: Inhibition of recombinant HDAC3 by fluorimetric assay.
A further series deals with Histone deacetylase 4 (Homo sapiens, UniProt P56524). The experiment in a line: Inhibition of recombinant HDAC4 by fluorimetric assay.
A further series has as its target Histone deacetylase 5 (Homo sapiens, UniProt Q9UQL6). The experiment in a line: Inhibition of recombinant HDAC5 by fluorimetric assay.
Series [9] has as its target T1, Protein deacetylase HDAC6 (Homo sapiens, UniProt Q9UBN7).
T1 sequence (Q9UBN7 whole entry): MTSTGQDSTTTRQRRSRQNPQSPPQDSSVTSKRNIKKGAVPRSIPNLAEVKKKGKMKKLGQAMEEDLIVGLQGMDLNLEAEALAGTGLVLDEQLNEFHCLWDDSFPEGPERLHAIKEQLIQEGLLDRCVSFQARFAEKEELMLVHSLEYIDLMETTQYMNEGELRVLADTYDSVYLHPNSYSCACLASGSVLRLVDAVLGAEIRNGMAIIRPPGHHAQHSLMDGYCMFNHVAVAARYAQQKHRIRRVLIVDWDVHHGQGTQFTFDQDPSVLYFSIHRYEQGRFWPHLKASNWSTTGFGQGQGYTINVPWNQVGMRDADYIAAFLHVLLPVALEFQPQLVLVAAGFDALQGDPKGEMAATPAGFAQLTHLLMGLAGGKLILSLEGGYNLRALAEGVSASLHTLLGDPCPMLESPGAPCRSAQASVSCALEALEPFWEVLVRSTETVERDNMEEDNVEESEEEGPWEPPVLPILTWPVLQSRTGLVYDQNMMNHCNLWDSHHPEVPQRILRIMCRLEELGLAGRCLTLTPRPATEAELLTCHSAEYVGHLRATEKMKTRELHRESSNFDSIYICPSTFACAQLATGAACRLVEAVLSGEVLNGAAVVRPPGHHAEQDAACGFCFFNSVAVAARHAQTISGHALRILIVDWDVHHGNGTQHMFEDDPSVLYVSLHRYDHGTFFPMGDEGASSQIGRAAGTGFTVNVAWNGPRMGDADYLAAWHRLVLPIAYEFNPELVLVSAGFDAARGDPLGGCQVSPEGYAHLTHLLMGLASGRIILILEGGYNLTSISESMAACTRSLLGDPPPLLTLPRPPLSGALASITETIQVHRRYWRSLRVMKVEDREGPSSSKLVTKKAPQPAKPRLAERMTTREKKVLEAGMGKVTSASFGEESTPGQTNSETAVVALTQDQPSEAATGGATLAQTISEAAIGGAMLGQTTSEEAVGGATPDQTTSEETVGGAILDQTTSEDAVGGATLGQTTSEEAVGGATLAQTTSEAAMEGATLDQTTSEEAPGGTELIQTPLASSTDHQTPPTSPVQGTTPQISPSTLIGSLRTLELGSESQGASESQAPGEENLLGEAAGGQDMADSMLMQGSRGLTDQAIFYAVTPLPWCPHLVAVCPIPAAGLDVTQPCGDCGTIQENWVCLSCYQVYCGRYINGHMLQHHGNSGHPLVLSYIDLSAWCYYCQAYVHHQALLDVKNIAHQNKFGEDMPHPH
Kind of series: Inhibition of recombinant HDAC6 by fluorimetric assay.

The target of a further series is T2, Histone deacetylase 8 (Homo sapiens, UniProt Q9BY41).
T2 sequence (Q9BY41 whole entry): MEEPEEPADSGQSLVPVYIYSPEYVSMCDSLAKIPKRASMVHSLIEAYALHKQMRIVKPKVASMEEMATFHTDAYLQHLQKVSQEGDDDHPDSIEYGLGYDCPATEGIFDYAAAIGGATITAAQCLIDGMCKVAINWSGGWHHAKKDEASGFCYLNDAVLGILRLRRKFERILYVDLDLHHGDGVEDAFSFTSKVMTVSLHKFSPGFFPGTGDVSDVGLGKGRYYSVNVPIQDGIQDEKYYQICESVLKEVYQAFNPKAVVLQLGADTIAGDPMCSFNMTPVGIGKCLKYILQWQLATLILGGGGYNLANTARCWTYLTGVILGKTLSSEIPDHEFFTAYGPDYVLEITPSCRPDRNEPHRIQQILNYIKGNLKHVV
The experiment in a line: Inhibition of recombinant HDAC8 by fluorimetric assay.

The next series addresses Histone deacetylase 9 (Homo sapiens, UniProt Q9UKV0). The experiment in a line: Inhibition of recombinant HDAC9 by fluorimetric assay.
The target in the next series is T3, Histone deacetylase 11 (Homo sapiens, UniProt Q96DB2).
T3 sequence (Q96DB2 whole entry): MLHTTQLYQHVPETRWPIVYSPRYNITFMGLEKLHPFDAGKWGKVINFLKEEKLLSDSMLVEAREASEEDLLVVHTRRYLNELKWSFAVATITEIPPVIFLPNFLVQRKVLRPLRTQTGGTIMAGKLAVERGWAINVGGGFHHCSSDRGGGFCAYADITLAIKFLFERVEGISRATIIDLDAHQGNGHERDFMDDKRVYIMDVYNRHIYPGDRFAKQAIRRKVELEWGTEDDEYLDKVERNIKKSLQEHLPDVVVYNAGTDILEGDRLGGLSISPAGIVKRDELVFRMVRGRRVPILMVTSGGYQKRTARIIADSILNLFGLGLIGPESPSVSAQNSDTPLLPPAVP
Kind of series: Inhibition of recombinant HDAC11 by fluorimetric assay.

A further series relates to COLO 205. The experiment in a line: Antiproliferative activity against human COLO205 cells after 96 hrs by celltiter assay. Type of series: functional, cell-based. Particulars: COLO 205, 96 h.
The test system of series [10] is HCT-116. Kind of series: Antitumor activity against human HCT116 cells xenografted in athymic mouse assessed as tumor growth inhibition at 130 mg/kg, ip qd for 21 days measured on day 22. Type of series: functional. The settings on record: HCT-116, ip, route intraperitoneal, read-out: TGI.
The subject of series [11] is Mus musculus. Kind of series: Toxicity in athymic mouse xenografted with human HCT116 cells assessed as maximum body weight loss at 130 mg/kg, ip qd for 21 measured on day 19. The settings on record: in vivo. It counts as organism-based, HCT-116. Further details: dose 130 mg/kg, route intraperitoneal.
Series [12] in a line: Toxicity in ip dosed athymic mouse assessed as maximum tolerated dose. Type of series: organism-based. The settings on record: in vivo.
Series [13] deals with HCT-116. The experiment in a line: Antitumor activity against human HCT116 cells xenografted in athymic mouse assessed as tumor growth inhibition at 70 mg/kg, ip qd for 21 days measured on day 22. It counts as functional. Particulars: HCT-116, ip, route intraperitoneal, read-out: TGI.
Series [14] deals with Mus musculus. Kind of series: Toxicity in athymic mouse xenografted with human HCT116 cells assessed as maximum body weight loss at 70 mg/kg, ip qd for 21 days measured on day 15. Type of series: organism-based, HCT-116. Further details: dose 70 mg/kg, route intraperitoneal. Particulars: in vivo, 504 h.

Histone deacetylase 5, sequence (Q9UQL6 whole entry): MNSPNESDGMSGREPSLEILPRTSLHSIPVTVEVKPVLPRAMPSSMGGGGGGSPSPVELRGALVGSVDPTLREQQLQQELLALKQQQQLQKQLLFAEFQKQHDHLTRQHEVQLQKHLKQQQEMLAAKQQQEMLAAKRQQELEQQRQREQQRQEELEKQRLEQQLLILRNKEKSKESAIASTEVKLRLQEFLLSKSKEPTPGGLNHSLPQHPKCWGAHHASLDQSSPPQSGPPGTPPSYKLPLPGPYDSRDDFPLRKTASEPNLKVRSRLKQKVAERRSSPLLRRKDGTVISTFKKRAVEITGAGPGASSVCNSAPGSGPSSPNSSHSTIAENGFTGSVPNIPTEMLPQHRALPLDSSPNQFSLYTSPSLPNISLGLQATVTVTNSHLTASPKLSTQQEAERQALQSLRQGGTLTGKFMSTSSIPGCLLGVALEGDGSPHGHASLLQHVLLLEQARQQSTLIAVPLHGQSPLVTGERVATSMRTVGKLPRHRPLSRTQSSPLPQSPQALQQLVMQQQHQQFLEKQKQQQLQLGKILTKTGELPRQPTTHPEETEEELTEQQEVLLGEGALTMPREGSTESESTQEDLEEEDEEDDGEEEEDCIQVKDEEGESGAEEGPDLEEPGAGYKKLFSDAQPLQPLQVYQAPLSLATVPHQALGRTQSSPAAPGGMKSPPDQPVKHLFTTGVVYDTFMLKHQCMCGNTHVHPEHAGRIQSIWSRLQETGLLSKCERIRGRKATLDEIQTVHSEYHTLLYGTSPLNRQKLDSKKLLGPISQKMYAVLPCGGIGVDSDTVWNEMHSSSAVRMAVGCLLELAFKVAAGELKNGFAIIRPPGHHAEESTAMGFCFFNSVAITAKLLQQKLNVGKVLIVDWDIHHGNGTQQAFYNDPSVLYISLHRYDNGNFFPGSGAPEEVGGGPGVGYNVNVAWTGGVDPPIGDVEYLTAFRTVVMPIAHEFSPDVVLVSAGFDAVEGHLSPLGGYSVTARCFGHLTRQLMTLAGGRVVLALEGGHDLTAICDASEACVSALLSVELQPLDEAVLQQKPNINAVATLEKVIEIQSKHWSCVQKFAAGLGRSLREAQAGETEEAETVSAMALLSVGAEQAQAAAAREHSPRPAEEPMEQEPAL
Histone deacetylase 4, sequence (P56524 whole entry): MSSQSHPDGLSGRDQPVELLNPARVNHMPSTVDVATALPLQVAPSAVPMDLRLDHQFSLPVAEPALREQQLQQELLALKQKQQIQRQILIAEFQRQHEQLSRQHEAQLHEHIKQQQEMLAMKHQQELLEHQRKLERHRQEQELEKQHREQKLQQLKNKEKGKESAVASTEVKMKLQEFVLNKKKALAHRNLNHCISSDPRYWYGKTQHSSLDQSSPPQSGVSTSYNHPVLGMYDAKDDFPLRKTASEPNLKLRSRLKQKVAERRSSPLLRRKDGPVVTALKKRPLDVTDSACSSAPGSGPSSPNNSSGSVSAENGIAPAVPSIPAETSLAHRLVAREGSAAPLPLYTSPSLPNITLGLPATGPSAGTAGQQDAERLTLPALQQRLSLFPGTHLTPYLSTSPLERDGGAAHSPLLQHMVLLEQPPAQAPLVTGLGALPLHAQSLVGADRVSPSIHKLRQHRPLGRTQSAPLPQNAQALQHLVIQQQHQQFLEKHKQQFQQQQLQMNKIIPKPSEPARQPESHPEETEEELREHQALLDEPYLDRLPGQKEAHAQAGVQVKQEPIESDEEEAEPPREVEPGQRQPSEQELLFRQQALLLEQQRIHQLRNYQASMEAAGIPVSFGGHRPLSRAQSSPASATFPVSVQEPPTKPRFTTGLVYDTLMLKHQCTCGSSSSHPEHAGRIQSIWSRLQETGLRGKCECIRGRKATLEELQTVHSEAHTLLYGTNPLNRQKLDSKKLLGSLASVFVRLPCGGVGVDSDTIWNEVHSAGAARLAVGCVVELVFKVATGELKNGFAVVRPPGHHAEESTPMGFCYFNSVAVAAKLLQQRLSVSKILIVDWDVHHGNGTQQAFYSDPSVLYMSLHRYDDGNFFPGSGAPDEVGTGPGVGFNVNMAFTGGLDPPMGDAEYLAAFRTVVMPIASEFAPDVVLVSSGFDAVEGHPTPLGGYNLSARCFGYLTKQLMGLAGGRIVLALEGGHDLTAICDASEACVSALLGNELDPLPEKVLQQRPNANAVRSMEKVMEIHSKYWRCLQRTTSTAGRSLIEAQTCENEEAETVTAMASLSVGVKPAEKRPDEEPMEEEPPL
Histone deacetylase 9, sequence (Q9UKV0 whole entry): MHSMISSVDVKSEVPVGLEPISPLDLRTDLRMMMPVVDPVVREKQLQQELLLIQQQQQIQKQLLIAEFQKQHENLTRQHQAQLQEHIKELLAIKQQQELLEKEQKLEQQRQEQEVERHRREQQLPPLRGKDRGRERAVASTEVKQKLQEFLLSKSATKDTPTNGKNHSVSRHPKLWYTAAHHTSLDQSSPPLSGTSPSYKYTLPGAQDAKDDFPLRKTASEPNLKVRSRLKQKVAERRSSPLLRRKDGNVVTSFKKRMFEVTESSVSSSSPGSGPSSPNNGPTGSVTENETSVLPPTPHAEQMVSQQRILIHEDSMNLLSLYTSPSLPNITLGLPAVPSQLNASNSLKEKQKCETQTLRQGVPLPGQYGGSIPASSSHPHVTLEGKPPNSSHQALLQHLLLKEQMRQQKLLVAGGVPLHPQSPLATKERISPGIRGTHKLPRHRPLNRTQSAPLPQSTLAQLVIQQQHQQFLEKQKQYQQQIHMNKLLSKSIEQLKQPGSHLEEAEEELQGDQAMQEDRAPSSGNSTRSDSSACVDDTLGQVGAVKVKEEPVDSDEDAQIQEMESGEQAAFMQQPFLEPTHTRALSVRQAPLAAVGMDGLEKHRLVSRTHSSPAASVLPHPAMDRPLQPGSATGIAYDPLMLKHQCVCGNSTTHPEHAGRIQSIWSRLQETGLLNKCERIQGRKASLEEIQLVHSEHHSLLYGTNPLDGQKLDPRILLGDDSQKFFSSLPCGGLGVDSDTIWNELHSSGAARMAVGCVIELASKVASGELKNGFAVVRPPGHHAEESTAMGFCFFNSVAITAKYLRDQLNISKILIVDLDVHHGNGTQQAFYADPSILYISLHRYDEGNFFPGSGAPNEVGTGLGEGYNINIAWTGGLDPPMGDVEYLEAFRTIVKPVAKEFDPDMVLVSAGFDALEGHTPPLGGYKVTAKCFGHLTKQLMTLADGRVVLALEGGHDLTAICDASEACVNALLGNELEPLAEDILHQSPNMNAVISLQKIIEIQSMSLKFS
Histone deacetylase 3, sequence (O15379 whole entry): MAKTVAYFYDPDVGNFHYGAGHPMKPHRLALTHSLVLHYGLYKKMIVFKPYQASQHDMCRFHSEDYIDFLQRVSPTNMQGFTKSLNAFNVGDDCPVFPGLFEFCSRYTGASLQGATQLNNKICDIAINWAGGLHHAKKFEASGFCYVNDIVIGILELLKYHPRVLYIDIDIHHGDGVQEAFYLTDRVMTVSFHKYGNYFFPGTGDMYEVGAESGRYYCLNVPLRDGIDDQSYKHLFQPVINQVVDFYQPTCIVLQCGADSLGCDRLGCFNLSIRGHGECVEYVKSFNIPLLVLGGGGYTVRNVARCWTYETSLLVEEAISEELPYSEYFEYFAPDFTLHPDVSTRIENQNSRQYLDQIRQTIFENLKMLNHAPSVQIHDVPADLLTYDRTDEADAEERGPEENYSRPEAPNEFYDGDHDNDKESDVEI

Turning to `Cl.O=C(/C=C/c1ccc2c(c1)nc(CCc1ccccc1)n2CCN1CCCC1)NO`, the concentration in solution in series [1] (solubility) was 1600 µg/mL. The same molecule had a logD in series [2] of 2.1.

Take `O=C(/C=C/c1ccc2c(c1)nc(CCc1ccccc1)n2CCN1CCCC1)NO`: the inhibition in vivo at 200 mg/kg in the series on HCT-116 [3] was found to be 78%. The Activity is 5.7% in the series on Mus musculus [4], “Non-toxic” with Mus musculus [6], 8.7% in the series with Mus musculus [11] and 0.5% with Mus musculus [14]. In addition, the inhibition in vivo at 100 mg/kg in the series with HCT-116 [5] turned out to be 43%. Besides, the bioavailability in series [7] was 13%. The molecule further yielded a Cmax in [8] of 920 nM. The Ki on Histone deacetylase 3 is 12.5 nM; at Histone deacetylase 4 it was 9.6 nM; at Histone deacetylase 5, 17.2 nM; in series [9], 20.6 nM; at Histone deacetylase 8, 82 nM; at Histone deacetylase 9, 19.2 nM. The Ki at Histone deacetylase 11 came out at 12.8 nM. This molecule came in with an IC50 in the series with COLO 205 of 140 nM. For the same molecule, the inhibition in vivo at 130 mg/kg with HCT-116 [10] amounted to 89%. The MTD in series [12] turned out to be 130 mg/kg. Moreover, the inhibition in vivo at 70 mg/kg with HCT-116 [13] is 59%.

By solubility is commonly meant the dissolved amount per volume that the medium holds. Low values mean little dissolved substance, high ones much dissolved substance. By logD is commonly meant the decadic logarithm of the distribution of all forms, ionised or not, between an organic phase and buffer at a given pH. High values mean a more lipophilic compound, low ones a more hydrophilic compound. In general, bioavailability refers to dose-corrected exposure relative to a reference, in per cent. What is called Cmax is the highest concentration seen after dosing. Usually Ki stands for a measure of affinity in units of concentration, obtained from inhibition or displacement. In general, IC50 refers to the concentration needed to halve the response being measured. A high value points to lower potency. The term MTD denotes the largest dose that counted as tolerated.
